Experimental data taken from PMC4154125, “Crystal structures of highly specific phosphinic tripeptide enantiomers in complex with the angiotensin‐I converting enzyme” (The Febs Journal, 2013).

Tests used:
AnCE [1] = molecular target: T1, AnCE (Drosophila melanogaster, UniProt Q10714); assay: inhibition of hippuryl-histidyl-leucine hydrolysis, Ki from IC50 (Cheng-Prusoff); format: biochemical; details: read-out: apparent Ki
T1 construct: recombinant single-domain enzyme, secreted from Pichia pastoris, purified
T1 sequence (Q10714 18-615): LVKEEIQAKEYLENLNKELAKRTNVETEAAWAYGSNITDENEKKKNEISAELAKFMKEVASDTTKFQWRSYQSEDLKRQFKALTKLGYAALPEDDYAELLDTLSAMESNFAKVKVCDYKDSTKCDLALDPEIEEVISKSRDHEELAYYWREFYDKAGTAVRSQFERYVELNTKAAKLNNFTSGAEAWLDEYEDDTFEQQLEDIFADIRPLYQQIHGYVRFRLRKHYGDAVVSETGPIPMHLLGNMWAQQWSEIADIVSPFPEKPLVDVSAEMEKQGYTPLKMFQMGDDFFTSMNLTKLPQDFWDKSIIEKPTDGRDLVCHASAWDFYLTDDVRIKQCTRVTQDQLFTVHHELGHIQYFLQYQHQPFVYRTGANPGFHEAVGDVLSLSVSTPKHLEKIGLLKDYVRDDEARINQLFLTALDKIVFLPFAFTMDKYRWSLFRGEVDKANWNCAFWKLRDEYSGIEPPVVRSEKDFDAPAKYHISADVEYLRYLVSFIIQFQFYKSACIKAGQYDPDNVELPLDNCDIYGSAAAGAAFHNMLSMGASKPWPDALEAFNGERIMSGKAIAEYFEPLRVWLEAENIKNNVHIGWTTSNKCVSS

AnCE [2] = molecular target: T1, AnCE; assay: inhibition of hippuryl-histidyl-leucine hydrolysis; format: biochemical
C-ACE = molecular target: T2, C-ACE (Homo sapiens, UniProt P12821); assay: X-ray crystal structure, […] Å; format: binding; details: co-crystal, pH 4.0 reservoir; active site, zinc coordination
T2 construct: tACEΔ36-g13, truncated underglycosylated variant of testis ACE (C-domain), CHO cells, purified
T2 sequence (P12821 642-1230): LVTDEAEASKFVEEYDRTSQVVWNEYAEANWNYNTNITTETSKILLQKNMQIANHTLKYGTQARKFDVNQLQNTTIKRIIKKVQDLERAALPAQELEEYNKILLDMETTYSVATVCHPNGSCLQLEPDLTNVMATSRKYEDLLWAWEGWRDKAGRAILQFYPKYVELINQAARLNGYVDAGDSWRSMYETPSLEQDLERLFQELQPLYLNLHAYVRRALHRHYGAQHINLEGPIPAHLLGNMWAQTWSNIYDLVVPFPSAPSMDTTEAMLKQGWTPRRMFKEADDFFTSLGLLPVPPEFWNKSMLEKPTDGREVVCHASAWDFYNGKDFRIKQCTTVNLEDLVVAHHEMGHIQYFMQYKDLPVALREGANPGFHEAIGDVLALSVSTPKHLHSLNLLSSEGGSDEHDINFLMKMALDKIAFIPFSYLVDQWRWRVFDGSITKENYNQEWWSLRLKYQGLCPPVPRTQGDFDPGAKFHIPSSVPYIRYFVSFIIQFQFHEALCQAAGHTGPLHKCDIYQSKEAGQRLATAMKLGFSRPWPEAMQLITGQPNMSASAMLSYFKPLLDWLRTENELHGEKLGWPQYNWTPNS

O=C(N[C@@H](Cc1ccccc1)P(=O)(O)C[C@@H](Cc1cc(-c2ccccc2)no1)C(=O)N[C@@H](Cc1ccc(O)cc1)C(=O)O)OCc1ccccc1 [FI, (2S)‐2‐({3‐[hydroxyl (2‐phenyl‐(1R)‐1‐{[(benzyloxy)carbonyl]‐amino}ethyl)phosphinyl]‐2‐[(3‐phenylisoxazol‐5‐yl)methyl]‐1‐oxo‐propyl}amino)‐3‐(4‐hydroxy‐phenyl) propanoic acid]
Ki (AnCE [1]): 24 nM
IC50 (AnCE [2]): 44 nM
X-ray crystal structure, 1.85 Å (C-ACE): One bound inhibitor molecule was modelled in the catalytic site of C‐ACE

O=C(N[C@@H](Cc1ccccc1)P(=O)(O)C[C@H](Cc1cc(-c2ccccc2)no1)C(=O)N[C@@H](Cc1ccc(O)cc1)C(=O)O)OCc1ccccc1 [FII, (2S)‐2‐({3‐[hydroxyl (2‐phenyl‐(1R)‐1‐{[(benzyloxy)carbonyl]‐amino}ethyl)phosphinyl]‐2‐[(3‐phenylisoxazol‐5‐yl)methyl]‐1‐oxo‐propyl}amino)‐3‐(4‐hydroxy‐phenyl) propanoic acid]
Ki (AnCE [1]): 120 nM
IC50 (AnCE [2]): 210 nM
